In general, ΔTm refers to the shift of the melting midpoint relative to a reference.

The target in experiment [1] is Serine/threonine-protein kinase RIO2 (Homo sapiens) (UniProt Q9BVS4).
Experiment [2] addresses Calcium/calmodulin-dependent protein kinase type 1D (Homo sapiens) (UniProt Q8IU85).
The target in experiment [3] is Dual specificity protein kinase CLK1 (Homo sapiens) (UniProt P49759).
The target in experiment [4] is T1, 3-phosphoinositide-dependent protein kinase 1 (Homo sapiens) (UniProt O15530).
T1 sequence (whole entry): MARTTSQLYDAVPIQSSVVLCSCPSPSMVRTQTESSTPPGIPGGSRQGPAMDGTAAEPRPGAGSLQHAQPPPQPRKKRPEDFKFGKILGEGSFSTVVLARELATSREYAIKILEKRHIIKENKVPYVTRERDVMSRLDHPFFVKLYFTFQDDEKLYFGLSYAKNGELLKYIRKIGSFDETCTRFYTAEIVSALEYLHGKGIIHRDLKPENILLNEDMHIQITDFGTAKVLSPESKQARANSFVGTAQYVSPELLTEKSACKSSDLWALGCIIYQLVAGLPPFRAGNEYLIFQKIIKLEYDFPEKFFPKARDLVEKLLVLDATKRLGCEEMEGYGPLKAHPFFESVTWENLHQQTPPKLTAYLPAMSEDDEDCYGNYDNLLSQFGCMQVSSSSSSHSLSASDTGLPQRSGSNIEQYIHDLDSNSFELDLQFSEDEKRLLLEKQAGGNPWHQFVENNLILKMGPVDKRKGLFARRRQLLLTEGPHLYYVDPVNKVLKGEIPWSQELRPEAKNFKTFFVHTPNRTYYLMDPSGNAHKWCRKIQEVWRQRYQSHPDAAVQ

In experiment [5] the target is Ribosomal protein S6 kinase alpha-3 (Homo sapiens) (UniProt P51812).
Experiment [6] deals with STE20-like serine/threonine-protein kinase (Homo sapiens) (UniProt Q9H2G2).
Experiment [7] deals with Serine/threonine-protein kinase OSR1 (Homo sapiens) (UniProt O95747).
Experiment [8] has as its target Calcium/calmodulin-dependent protein kinase type 1G (Homo sapiens) (UniProt Q96NX5).
The target of experiment [9] is T2, Serine/threonine-protein kinase Nek2 (Homo sapiens) (UniProt P51955).
T2 sequence (whole entry): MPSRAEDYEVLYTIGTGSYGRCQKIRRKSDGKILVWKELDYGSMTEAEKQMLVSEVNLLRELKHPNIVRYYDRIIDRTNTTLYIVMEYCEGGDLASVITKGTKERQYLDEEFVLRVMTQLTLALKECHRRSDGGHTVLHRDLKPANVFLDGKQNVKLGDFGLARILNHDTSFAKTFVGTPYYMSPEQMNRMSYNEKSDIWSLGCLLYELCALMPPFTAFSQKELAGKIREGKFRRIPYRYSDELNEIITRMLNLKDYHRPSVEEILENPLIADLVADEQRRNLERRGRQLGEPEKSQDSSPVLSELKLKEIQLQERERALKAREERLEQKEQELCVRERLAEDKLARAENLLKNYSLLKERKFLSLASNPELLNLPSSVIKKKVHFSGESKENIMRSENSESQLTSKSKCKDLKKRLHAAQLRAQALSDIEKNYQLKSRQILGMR

The target of experiment [10] is Death-associated protein kinase 3 (Homo sapiens) (UniProt O43293).
Experiment [11] addresses Cyclin-dependent kinase 6 (Homo sapiens) (UniProt Q00534).
Experiment [12] concerns the target Mitogen-activated protein kinase 3 (Homo sapiens, UniProt P27361).
Experiment [13] deals with Serine/threonine-protein kinase 38 (Homo sapiens) (UniProt Q15208).
For experiment [14], the target named is T3, Lymphokine-activated killer T-cell-originated protein kinase (Homo sapiens) (UniProt Q96KB5).
T3 sequence (whole entry): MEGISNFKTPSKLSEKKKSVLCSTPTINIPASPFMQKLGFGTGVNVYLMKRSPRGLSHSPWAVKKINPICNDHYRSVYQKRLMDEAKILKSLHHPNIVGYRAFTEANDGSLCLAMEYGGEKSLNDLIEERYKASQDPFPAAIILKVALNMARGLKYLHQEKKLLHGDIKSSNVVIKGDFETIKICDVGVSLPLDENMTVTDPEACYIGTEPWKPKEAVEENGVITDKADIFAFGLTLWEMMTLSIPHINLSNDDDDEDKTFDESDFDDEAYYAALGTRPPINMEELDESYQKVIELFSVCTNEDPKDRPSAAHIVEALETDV

Experiment [15] addresses Dual specificity mitogen-activated protein kinase kinase 2 (Homo sapiens, UniProt P36507).
The target in experiment [16] is T4, Serine/threonine-protein kinase 4 (Homo sapiens) (UniProt Q13043).
T4 sequence (whole entry): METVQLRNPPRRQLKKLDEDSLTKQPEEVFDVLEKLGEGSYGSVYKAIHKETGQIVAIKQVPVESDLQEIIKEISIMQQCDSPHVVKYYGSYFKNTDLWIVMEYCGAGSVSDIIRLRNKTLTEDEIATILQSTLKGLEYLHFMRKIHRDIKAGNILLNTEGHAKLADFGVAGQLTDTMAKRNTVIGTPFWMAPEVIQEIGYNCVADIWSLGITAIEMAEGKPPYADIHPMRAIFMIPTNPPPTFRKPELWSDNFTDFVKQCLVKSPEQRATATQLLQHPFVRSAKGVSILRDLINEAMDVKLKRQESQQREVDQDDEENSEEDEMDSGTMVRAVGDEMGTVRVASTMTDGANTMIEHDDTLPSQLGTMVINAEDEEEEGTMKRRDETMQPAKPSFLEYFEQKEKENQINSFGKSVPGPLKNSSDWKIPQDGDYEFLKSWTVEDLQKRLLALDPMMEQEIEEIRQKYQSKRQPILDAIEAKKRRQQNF

Experiment [17] addresses Serine/threonine-protein kinase 16 (Homo sapiens) (UniProt O75716).
For experiment [18], the target named is cAMP-dependent protein kinase catalytic subunit alpha (Homo sapiens) (UniProt P17612).
The target in experiment [19] is Serine/threonine-protein kinase Nek6 (Homo sapiens) (UniProt Q9HC98).
The target in experiment [20] is Serine/threonine-protein kinase VRK2 (Homo sapiens) (UniProt Q86Y07).
Experiment [21] deals with Serine/threonine-protein kinase 25 (Homo sapiens) (UniProt O00506).
Chain of Serine/threonine-protein kinase 25 (Homo sapiens) (O00506 whole entry, looked up): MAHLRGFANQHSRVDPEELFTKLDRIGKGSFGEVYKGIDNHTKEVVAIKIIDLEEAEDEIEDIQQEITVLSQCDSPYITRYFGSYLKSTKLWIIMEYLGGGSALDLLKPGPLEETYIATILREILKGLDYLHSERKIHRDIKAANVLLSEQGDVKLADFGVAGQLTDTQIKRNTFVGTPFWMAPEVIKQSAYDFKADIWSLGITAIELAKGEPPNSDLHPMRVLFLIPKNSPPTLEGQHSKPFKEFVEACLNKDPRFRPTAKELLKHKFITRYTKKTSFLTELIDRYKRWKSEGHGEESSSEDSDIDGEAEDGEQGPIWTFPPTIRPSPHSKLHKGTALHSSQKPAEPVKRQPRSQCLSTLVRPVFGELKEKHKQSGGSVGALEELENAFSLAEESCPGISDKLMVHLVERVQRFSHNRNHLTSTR

Chain of Serine/threonine-protein kinase RIO2 (Homo sapiens) (Q9BVS4 whole entry, looked up): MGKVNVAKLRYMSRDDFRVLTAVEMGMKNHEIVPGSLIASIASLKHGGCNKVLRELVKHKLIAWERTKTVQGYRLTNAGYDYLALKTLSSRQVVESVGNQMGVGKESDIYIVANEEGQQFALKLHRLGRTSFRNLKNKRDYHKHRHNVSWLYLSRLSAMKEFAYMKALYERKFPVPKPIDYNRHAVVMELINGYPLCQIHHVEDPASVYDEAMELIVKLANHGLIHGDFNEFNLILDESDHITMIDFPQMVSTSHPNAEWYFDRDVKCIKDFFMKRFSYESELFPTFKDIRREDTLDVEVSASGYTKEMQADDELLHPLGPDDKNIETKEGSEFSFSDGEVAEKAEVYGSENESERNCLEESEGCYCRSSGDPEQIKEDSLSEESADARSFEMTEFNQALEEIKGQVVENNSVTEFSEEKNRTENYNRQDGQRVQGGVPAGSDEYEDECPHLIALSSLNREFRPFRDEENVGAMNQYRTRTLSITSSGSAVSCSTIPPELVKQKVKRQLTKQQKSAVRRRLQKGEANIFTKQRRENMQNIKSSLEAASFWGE
Chain of Calcium/calmodulin-dependent protein kinase type 1D (Homo sapiens) (Q8IU85 whole entry, looked up): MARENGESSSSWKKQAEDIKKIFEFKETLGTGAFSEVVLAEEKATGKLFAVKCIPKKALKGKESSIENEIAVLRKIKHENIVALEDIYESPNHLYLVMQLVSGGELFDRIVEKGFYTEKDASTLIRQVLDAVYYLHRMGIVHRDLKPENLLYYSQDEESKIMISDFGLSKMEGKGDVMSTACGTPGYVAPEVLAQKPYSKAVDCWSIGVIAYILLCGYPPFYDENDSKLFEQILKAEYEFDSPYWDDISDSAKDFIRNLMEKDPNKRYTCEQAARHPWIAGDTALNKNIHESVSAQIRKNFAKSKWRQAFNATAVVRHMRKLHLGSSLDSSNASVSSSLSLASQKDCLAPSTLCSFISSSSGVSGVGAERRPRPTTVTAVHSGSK
Chain of Dual specificity mitogen-activated protein kinase kinase 2 (P36507 whole entry): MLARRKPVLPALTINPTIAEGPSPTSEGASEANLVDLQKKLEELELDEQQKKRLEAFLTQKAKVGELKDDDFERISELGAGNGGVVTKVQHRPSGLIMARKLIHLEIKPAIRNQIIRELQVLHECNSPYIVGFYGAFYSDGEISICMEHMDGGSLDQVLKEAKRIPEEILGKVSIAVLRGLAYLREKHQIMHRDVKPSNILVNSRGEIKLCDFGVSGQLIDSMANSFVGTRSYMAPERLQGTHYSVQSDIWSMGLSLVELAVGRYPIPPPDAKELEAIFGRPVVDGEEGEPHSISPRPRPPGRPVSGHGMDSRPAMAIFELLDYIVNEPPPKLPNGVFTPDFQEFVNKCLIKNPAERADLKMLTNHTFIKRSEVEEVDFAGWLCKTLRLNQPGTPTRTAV
Chain of Mitogen-activated protein kinase 3 (P27361 whole entry): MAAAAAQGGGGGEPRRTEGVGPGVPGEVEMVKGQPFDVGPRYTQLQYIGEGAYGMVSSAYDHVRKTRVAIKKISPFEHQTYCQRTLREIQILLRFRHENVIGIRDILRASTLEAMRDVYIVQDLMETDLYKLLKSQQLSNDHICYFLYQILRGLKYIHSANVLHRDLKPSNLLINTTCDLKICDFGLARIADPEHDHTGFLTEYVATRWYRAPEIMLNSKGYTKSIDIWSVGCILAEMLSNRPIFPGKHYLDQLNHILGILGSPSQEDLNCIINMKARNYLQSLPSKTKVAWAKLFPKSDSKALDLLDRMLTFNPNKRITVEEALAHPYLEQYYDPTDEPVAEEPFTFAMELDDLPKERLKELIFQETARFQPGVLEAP
Chain of Death-associated protein kinase 3 (Homo sapiens) (O43293 whole entry, looked up): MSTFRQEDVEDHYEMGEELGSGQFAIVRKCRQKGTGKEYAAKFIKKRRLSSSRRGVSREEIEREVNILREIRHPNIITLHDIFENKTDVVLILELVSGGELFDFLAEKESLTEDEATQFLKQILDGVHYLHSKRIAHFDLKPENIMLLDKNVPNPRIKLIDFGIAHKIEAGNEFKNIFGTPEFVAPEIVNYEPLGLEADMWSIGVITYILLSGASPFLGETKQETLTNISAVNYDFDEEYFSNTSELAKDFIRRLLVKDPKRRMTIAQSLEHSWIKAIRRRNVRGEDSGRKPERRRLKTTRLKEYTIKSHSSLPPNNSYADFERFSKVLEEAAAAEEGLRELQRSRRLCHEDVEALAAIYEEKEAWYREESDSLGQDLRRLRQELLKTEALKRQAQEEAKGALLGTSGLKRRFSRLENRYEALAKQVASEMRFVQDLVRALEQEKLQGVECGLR
Chain of Cyclin-dependent kinase 6 (Homo sapiens) (Q00534 whole entry): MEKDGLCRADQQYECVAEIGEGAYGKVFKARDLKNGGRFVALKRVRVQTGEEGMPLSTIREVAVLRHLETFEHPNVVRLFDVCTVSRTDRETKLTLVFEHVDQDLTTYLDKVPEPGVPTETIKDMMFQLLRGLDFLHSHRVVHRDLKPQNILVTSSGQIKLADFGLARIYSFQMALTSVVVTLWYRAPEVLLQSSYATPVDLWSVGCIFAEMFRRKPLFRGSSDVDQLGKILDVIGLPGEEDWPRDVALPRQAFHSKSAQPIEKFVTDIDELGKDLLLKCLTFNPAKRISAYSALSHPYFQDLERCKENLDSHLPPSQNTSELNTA
Chain of Dual specificity protein kinase CLK1 (Homo sapiens) (P49759 whole entry, looked up): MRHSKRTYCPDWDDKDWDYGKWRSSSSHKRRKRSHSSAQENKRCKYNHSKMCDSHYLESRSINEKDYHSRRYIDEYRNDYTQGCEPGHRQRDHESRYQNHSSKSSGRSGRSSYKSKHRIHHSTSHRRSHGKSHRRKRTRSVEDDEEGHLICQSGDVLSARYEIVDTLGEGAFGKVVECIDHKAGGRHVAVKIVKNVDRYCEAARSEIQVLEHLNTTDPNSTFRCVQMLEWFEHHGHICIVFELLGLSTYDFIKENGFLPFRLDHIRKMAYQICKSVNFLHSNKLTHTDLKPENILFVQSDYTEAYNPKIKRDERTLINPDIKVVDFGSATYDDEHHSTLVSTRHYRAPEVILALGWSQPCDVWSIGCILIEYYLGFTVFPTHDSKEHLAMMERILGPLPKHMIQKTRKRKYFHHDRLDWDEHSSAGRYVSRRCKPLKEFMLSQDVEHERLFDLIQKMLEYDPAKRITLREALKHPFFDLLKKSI
Chain of STE20-like serine/threonine-protein kinase (Homo sapiens) (Q9H2G2 whole entry, looked up): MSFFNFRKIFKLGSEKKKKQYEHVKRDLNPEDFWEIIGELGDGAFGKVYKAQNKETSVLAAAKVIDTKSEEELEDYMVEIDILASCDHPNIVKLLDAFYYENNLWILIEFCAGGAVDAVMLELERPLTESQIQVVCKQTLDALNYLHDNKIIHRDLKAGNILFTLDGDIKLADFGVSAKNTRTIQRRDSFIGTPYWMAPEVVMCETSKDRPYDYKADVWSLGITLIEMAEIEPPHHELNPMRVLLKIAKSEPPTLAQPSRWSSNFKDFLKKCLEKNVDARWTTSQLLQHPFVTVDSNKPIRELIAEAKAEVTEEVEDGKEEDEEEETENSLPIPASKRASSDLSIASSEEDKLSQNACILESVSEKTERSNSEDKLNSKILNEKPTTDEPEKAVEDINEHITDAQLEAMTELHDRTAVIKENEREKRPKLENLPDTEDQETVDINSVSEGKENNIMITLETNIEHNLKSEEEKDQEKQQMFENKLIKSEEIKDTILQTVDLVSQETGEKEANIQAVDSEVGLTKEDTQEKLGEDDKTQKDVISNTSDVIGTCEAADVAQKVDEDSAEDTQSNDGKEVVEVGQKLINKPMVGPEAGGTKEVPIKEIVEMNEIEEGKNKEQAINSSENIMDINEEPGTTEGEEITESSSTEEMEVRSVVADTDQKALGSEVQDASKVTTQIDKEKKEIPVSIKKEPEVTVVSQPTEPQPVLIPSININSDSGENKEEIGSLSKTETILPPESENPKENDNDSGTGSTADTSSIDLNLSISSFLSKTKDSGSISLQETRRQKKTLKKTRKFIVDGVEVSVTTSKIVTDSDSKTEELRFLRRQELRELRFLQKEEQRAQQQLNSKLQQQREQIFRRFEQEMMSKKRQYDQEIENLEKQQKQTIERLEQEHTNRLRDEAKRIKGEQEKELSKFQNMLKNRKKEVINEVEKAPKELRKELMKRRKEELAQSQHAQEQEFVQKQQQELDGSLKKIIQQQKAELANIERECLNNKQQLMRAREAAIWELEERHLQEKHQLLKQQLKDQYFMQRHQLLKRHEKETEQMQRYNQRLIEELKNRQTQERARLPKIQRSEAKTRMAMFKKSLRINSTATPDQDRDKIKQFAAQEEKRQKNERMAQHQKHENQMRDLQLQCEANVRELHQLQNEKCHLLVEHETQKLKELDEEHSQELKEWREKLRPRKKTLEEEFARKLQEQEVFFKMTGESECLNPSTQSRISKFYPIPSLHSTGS
Chain of Serine/threonine-protein kinase Nek6 (Homo sapiens) (Q9HC98 whole entry): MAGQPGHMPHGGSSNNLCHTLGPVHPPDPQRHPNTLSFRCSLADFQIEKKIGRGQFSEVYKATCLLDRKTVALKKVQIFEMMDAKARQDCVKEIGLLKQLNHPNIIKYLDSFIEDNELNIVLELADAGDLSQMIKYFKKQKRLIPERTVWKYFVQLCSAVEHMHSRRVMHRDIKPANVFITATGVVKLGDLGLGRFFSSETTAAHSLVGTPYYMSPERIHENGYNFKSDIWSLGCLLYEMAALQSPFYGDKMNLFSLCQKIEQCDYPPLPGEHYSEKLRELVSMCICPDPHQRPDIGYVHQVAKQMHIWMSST

For `COc1ccc(CNc2nc(N(CCO)CCO)nc3c2ncn3C(C)C)cc1`, the thermal shift (ΔTm) in experiment [1] was 0.3 °C; in experiment [2] it was 0.3 °C; in experiment [3], 2.4 °C; in [4], 0 °C; in [5], 1.3 °C; in experiment [6] it was 0.3 °C. In addition, the ΔTm in experiment [7] is 0.4 °C; in [8] it was 0.6 °C; in [9], 1 °C; in experiment [10], 0.7 °C; in experiment [11], -0.1 °C; in experiment [12], 0.2 °C. Moreover, the ΔTm in [13] amounted to 0.4 °C; in experiment [14] it was 0.7 °C; in [15], 0.1 °C; in [16] it was 0.4 °C; in [17], 2.3 °C; in experiment [18], 0.5 °C. The ΔTm in [19] was determined as 0.3 °C; in experiment [20], 1.4 °C; in [21], 1.5 °C.
As for `CC(C)n1cnc2/c(=N/c3cccc(Cl)c3)nc(NCCO)[nH]c21`, the ΔTm is 1 °C in [1]; 0.7 °C in experiment [2]; 5.1 °C in experiment [3]; 0 °C in experiment [4]; 4.6 °C in experiment [5]; 1.6 °C in experiment [6]. Also, the ΔTm in experiment [7] was determined as 1.3 °C; in experiment [8] it was 0.1 °C; in [9], 1.3 °C; in experiment [10], 2.2 °C; in experiment [11], 0 °C; in [12], 0.2 °C. For the same molecule, the ΔTm in experiment [13] is 2.7 °C; in [14], -0.1 °C; in [15] it was 0.2 °C; in experiment [16] it was 3.4 °C; in [17], 2.6 °C; in [18], 1.4 °C. Besides, the ΔTm came to 0.1 °C in [19], 2.5 °C in experiment [20] and 2.9 °C in experiment [21].
On to `Brc1c(Br)c(Br)c2[nH]nnc2c1Br` [TETRABROMOBENZOTRIAZOLE], for which the ΔTm in experiment [1] was 3.1 °C; in [2], -1.6 °C; in [3] it was 3.6 °C; in experiment [4], -4.4 °C; in experiment [5], 1.5 °C; in [6], 1.2 °C. Moreover, the ΔTm was 2.1 °C in experiment [7]; -0.7 °C in experiment [8]; -0.1 °C in experiment [9]; 3.6 °C in experiment [10]; 0.3 °C in [11]; 0 °C in [12]. Besides, the ΔTm in [13] is 1.3 °C; in experiment [14] it was -0.3 °C; in experiment [15], 1.6 °C; in experiment [16] it was 3.3 °C; in [17], 1.1 °C; in [18] it was 0.6 °C. In addition, the figures for the ΔTm in experiment [19], in experiment [20] and in [21] were 0.6 °C, -0.5 °C and 0.7 °C, respectively.
In the case of `O=S(=O)(c1cccc2c(Cl)cccc12)N1CCCNCC1`, the ΔTm was 0.3 °C in [1]; 0 °C in experiment [2]; 2 °C in experiment [3]; 0.1 °C in [4]; 0.5 °C in experiment [5]; -0.1 °C in experiment [6]. For the same molecule, the ΔTm in experiment [7] was -0.5 °C; in experiment [8] it was -0.1 °C; in experiment [9], 0.9 °C; in experiment [10] it was 2.5 °C; in experiment [11], 0.9 °C; in experiment [12] it was 0.4 °C. Further, the ΔTm in experiment [13] is 0.3 °C; in experiment [14] it was 0 °C; in experiment [15] it was -0.3 °C; in [16] it was 0.9 °C; in experiment [17], 1.1 °C; in experiment [18] it was 1.4 °C. Also, the ΔTm in [19] was found to be 0 °C; in experiment [20], 0 °C; in experiment [21], 0.2 °C.
For the molecule `CC[C@H](CO)Nc1nc(NCc2ccccc2)c2ncn(C(C)C)c2n1` [SELICICLIB], the ΔTm in [1] stood at 0 °C; in experiment [2], 0 °C; in experiment [3], 2.1 °C; in experiment [4] it was 0.2 °C; in [5] it was 1.1 °C; in [6], 0.2 °C. For the same molecule, the ΔTm turned out to be 1 °C in experiment [7]; 0 °C in [8]; 0.7 °C in [9]; 0.2 °C in [11]; 0.4 °C in [12]; 0.3 °C in experiment [13]. The ΔTm in experiment [14] was 0.8 °C; in [16] it was 0.3 °C; in [18], 0.2 °C; in experiment [20], 2.1 °C; in experiment [21], 0.3 °C.
Turning to `COc1ccc2c(c1)/C(=C/c1cnc[nH]1)C(=O)N2` [SU-9516], the ΔTm in experiment [1] turned out to be 1.3 °C; in experiment [2], 0.5 °C; in experiment [3] it was 3.4 °C; in [4] it was 0.2 °C; in experiment [6], 3.3 °C; in experiment [7] it was 1.3 °C. Also, the ΔTm came to 0.4 °C in experiment [8]; 1.2 °C in experiment [9]; 2.7 °C in [10]; 3 °C in experiment [11]; 2.6 °C in experiment [12]; 3.4 °C in [13]. The ΔTm in [14] came to 0 °C; in experiment [15], 1.7 °C; in experiment [16], 8.1 °C; in experiment [17] it was 4.4 °C; in experiment [18], 1 °C; in experiment [19], 0.1 °C. Besides, the figures for the ΔTm in [20] and in [21] were 0.7 °C and 6.4 °C, respectively.
In the case of `C[S+]([O-])c1ccc(-c2nc(-c3ccc(F)cc3)c(-c3ccncc3)[nH]2)cc1` (stereo unspecified) [SB-203580], the ΔTm was -0.2 °C in [1]; -0.2 °C in experiment [2]; -0.3 °C in experiment [3]; -0.1 °C in experiment [4]; 0.3 °C in experiment [5]; -0.2 °C in [7]. Also, the ΔTm in experiment [8] is -0.2 °C; in experiment [9] it was 0.3 °C; in experiment [10], -0.4 °C; in experiment [11] it was -0.1 °C; in [12] it was 0.1 °C; in experiment [13] it was 0.2 °C. Moreover, the thermal shift (ΔTm) in [14] was determined as 0.2 °C; in experiment [15], 0.2 °C; in experiment [16] it was 1 °C; in experiment [17], 0.4 °C; in experiment [18] it was 0 °C; in experiment [19], 0.2 °C. Also, the results for the ΔTm in experiment [20] and in [21] were 0.6 °C and 0.9 °C, respectively.
